# Like-named read-outs stand apart in the source and are kept apart here.
# System: A. non-baumannii isolates (n = 87)
# Experiment: MIC, broth microdilution (EUCAST), A. non-baumannii isolates
# Assay type: cell-based, Acinetobacter spp. (non-baumannii)
# Conditions: for MIC: in combinations ETZ fixed at 8 mg/L
# Text: The bacterial strains used in this study comprised 208 clinical isolates from the Spanish National Acinetobacter spp. 2020 Multicenter Collection, which was previously characterized in detail by our research group, including whole-genome sequencing, phylogenetics studies, clonal dynamics, and resistance mechanisms ([2], [29]). Additionally, a collection of A. baumannii ATCC 17978 transformants coding the blaOXA-23, blaOXA-24/40, blaOXA-51, blaOXA-58, blaOXA-143, and blaOXA-201 genes, previously constructed and described by our group ([30]), was used to determine the activity of enmetazobactam against strains carrying the main CHDLs of A. baumannii.
# The antimicrobial susceptibility of the 208 Acinetobacter spp. isolates was assessed using the broth microdilution method, as described in the European Committee on Antimicrobial Susceptibility Testing (EUCAST) v.15 guidelines (http://www.eucast.org/clinical_breakpoints). […] MICs for enmetazobactam alone were assessed as well. […] Subsequently, MIC testing was also conducted with a collection of A. baumannii ATCC 17978 transformants expressing clinically relevant OXA-like carbapenemase genes.
# The A. baumannii ATCC 19606 strain was used as the reference strain in all susceptibility experiments, in duplicate assays. Antibiotics were purchased from Sigma-Aldrich, except enmetazobactam and durlobactam, which were obtained from Advanz Pharma and MedChemExpress, respectively.
# [1] = Acinetobacter, A. non-baumannii isolates (n=87), ETZ fixed 8 mg/L in combinations
# [2] = […], ETZ fixed 8 mg/L in combinations
structure (smiles),measurement,setting,value
CO/N=C(\C(=O)N[C@@H]1C(=O)N2C(C(=O)[O-])=C(C[N+]3(C)CCCC3)CS[C@H]12)c1csc(N)n1 [cefepime],MIC distribution 0.12,,1.1
same,MIC,"Acinetobacter baylyi, isolate NO-Ab27, Acinetobacter baylyi, read-out: MIC",0.5 mg/L
same,MIC,"Acinetobacter beijerinckii, isolate NO-Ab122, Acinetobacter beijerinckii, read-out: MIC",2 mg/L
same,MIC,"Acinetobacter bereziniae, isolate NO-Ab70, Acinetobacter bereziniae, read-out: MIC",1 mg/L
same,MIC,"Acinetobacter bereziniae, isolate NO-Ab84, Acinetobacter bereziniae, read-out: MIC",1 mg/L
same,MIC,"Acinetobacter bereziniae, isolate NO-Ab104, Acinetobacter bereziniae, read-out: MIC",0.5 mg/L
same,MIC,"Acinetobacter bereziniae, isolate NO-Ab114, Acinetobacter bereziniae, read-out: MIC",1 mg/L
same,MIC,"Acinetobacter bereziniae, isolate NO-Ab115, Acinetobacter bereziniae, read-out: MIC",1 mg/L
same,MIC,"Acinetobacter bereziniae, isolate NO-Ab116, Acinetobacter bereziniae, read-out: MIC",1 mg/L
same,MIC,"Acinetobacter bereziniae, isolate NO-Ab117, Acinetobacter bereziniae, read-out: MIC",4 mg/L
same,MIC,"Acinetobacter bereziniae, isolate NO-Ab129, Acinetobacter bereziniae, read-out: MIC",1 mg/L
same,MIC,"Acinetobacter bereziniae, isolate NO-Ab156, Acinetobacter bereziniae, read-out: MIC",1 mg/L
same,MIC,"Acinetobacter calcoaceticus, isolate NO-Ab85, Acinetobacter calcoaceticus, read-out: MIC",4 mg/L
same,MIC,"Acinetobacter calcoaceticus, isolate NO-Ab94, Acinetobacter calcoaceticus, read-out: MIC",2 mg/L
same,MIC,"Acinetobacter calcoaceticus, isolate NO-Ab108, Acinetobacter calcoaceticus, read-out: MIC",4 mg/L
same,MIC,"Acinetobacter calcoaceticus, isolate NO-Ab161, Acinetobacter calcoaceticus, read-out: MIC",4 mg/L
same,MIC,"Acinetobacter calcoaceticus, isolate NO-Ab198, Acinetobacter calcoaceticus, read-out: MIC",4 mg/L
same,MIC,"Acinetobacter calcoaceticus, isolate NO-Ab205, Acinetobacter calcoaceticus, read-out: MIC",4 mg/L
same,MIC,"Acinetobacter calcoaceticus, isolate NO-Ab211, Acinetobacter calcoaceticus, read-out: MIC",2 mg/L
same,MIC,"Acinetobacter courvalinii, isolate NO-Ab216, Acinetobacter courvalinii, read-out: MIC",1 mg/L
same,MIC,"Acinetobacter dispersus, isolate NO-Ab2, Acinetobacter dispersus, read-out: MIC",0.5 mg/L
same,MIC,"Acinetobacter guillouiae, isolate NO-Ab69, Acinetobacter guillouiae, read-out: MIC",2 mg/L
same,MIC,"Acinetobacter guillouiae, isolate NO-Ab74, Acinetobacter guillouiae, read-out: MIC",2 mg/L
same,MIC,"Acinetobacter haemolyticus, isolate NO-Ab92, Acinetobacter haemolyticus",2 mg/L
same,MIC,"Acinetobacter haemolyticus, isolate NO-Ab177, Acinetobacter haemolyticus",1 mg/L
same,MIC,"Acinetobacter haemolyticus, isolate NO-Ab217, Acinetobacter haemolyticus",2 mg/L
same,MIC,"Acinetobacter johnsonii, isolate NO-Ab101, Acinetobacter johnsonii, read-out: MIC",4 mg/L
same,MIC,"Acinetobacter junii, isolate NO-Ab76, Acinetobacter junii, read-out: MIC",0.5 mg/L
same,MIC,"Acinetobacter junii, isolate NO-Ab77, Acinetobacter junii, OXA-24/40, read-out: MIC",1 mg/L
same,MIC,"Acinetobacter lactucae, isolate NO-Ab60, Acinetobacter dijkshoorniae, read-out: MIC",2 mg/L
same,MIC,"Acinetobacter lactucae, isolate NO-Ab63, Acinetobacter dijkshoorniae, read-out: MIC",2 mg/L
same,MIC,"Acinetobacter lactucae, isolate NO-Ab65, Acinetobacter dijkshoorniae, read-out: MIC",2 mg/L
same,MIC,"Acinetobacter lactucae, isolate NO-Ab86, Acinetobacter dijkshoorniae, read-out: MIC",1 mg/L
same,MIC,"Acinetobacter lactucae, isolate NO-Ab88, Acinetobacter dijkshoorniae, read-out: MIC",2 mg/L
same,MIC,"Acinetobacter lactucae, isolate NO-Ab91, Acinetobacter dijkshoorniae, read-out: MIC",2 mg/L
same,MIC,"Acinetobacter lactucae, isolate NO-Ab121, Acinetobacter dijkshoorniae, read-out: MIC",4 mg/L
same,MIC,"Acinetobacter lactucae, isolate NO-Ab125, Acinetobacter dijkshoorniae, read-out: MIC",2 mg/L
same,MIC,"Acinetobacter lactucae, isolate NO-Ab160, Acinetobacter dijkshoorniae, read-out: MIC",0.5 mg/L
same,MIC,"Acinetobacter nosocomialis, isolate NO-Ab43, Acinetobacter nosocomialis, read-out: MIC",2 mg/L
same,MIC,"Acinetobacter nosocomialis, isolate NO-Ab68, Acinetobacter nosocomialis, OXA-24/40, read-out: MIC",4 mg/L
same,MIC,"Acinetobacter nosocomialis, isolate NO-Ab98, Acinetobacter nosocomialis, read-out: MIC",2 mg/L
same,MIC,"Acinetobacter nosocomialis, isolate NO-Ab208, Acinetobacter nosocomialis, read-out: MIC",2 mg/L
same,MIC,"Acinetobacter pittii, isolate NO-Ab59, Acinetobacter pittii, read-out: MIC",2 mg/L
same,MIC,"Acinetobacter pittii, isolate NO-Ab66, Acinetobacter pittii, read-out: MIC",8 mg/L
same,MIC,"Acinetobacter pittii, isolate NO-Ab73, Acinetobacter pittii, read-out: MIC",2 mg/L
same,MIC,"Acinetobacter pittii, isolate NO-Ab75, Acinetobacter pittii, read-out: MIC",4 mg/L
same,MIC,"Acinetobacter pittii, isolate NO-Ab78, Acinetobacter pittii, read-out: MIC",1 mg/L
same,MIC,"Acinetobacter pittii, isolate NO-Ab82, Acinetobacter pittii, read-out: MIC",1 mg/L
same,MIC,"Acinetobacter pittii, isolate NO-Ab89, Acinetobacter pittii, read-out: MIC",1 mg/L
same,MIC,"Acinetobacter pittii, isolate NO-Ab90, Acinetobacter pittii, read-out: MIC",1 mg/L
same,MIC,"Acinetobacter pittii, isolate NO-Ab97, Acinetobacter pittii, read-out: MIC",4 mg/L
same,MIC,"Acinetobacter pittii, isolate NO-Ab105, Acinetobacter pittii, read-out: MIC",1 mg/L
same,MIC,"Acinetobacter pittii, isolate NO-Ab106, Acinetobacter pittii, read-out: MIC",1 mg/L
same,MIC,"Acinetobacter pittii, isolate NO-Ab107, Acinetobacter pittii, read-out: MIC",0.5 mg/L
same,MIC,"Acinetobacter pittii, isolate NO-Ab111, Acinetobacter pittii, read-out: MIC",1 mg/L
same,MIC,"Acinetobacter pittii, isolate NO-Ab113, Acinetobacter pittii, read-out: MIC",2 mg/L
same,MIC,"Acinetobacter pittii, isolate NO-Ab118, Acinetobacter pittii, read-out: MIC",2 mg/L
same,MIC,"Acinetobacter pittii, isolate NO-Ab135, Acinetobacter pittii, read-out: MIC",1 mg/L
same,MIC,"Acinetobacter pittii, isolate NO-Ab145, Acinetobacter pittii, read-out: MIC",2 mg/L
same,MIC,"Acinetobacter pittii, isolate NO-Ab151, Acinetobacter pittii, read-out: MIC",2 mg/L
same,MIC,"Acinetobacter pittii, isolate NO-Ab154, Acinetobacter pittii, read-out: MIC",1 mg/L
same,MIC,"Acinetobacter pittii, isolate NO-Ab157, Acinetobacter pittii, read-out: MIC",4 mg/L
same,MIC,"Acinetobacter pittii, isolate NO-Ab162, Acinetobacter pittii, read-out: MIC",8 mg/L
same,MIC,"Acinetobacter pittii, isolate NO-Ab164, Acinetobacter pittii, read-out: MIC",1 mg/L
same,MIC,"Acinetobacter pittii, isolate NO-Ab178, Acinetobacter pittii, read-out: MIC",4 mg/L
same,MIC,"Acinetobacter pittii, isolate NO-Ab197, Acinetobacter pittii, read-out: MIC",2 mg/L
same,MIC,"Acinetobacter proteolyticus, isolate NO-Ab99, Acinetobacter proteolyticus, read-out: MIC",4 mg/L
same,MIC,"Acinetobacter proteolyticus, isolate NO-Ab102, Acinetobacter proteolyticus, read-out: MIC",4 mg/L
same,MIC,"Acinetobacter proteolyticus, isolate NO-Ab210, Acinetobacter proteolyticus, read-out: MIC",1 mg/L
same,MIC,"Acinetobacter radioresistens, isolate NO-Ab175, Acinetobacter radioresistens, read-out: MIC",0.25 mg/L
same,MIC,"Acinetobacter radioresistens, isolate NO-Ab215, Acinetobacter radioresistens, read-out: MIC",0.12 mg/L
same,MIC,"Acinetobacter ursingii, isolate NO-Ab3, Acinetobacter ursingii, read-out: MIC",0.25 mg/L
same,MIC,"Acinetobacter ursingii, isolate NO-Ab64, Acinetobacter ursingii, read-out: MIC",1 mg/L
same,MIC,"Acinetobacter ursingii, isolate NO-Ab87, Acinetobacter ursingii, read-out: MIC",0.25 mg/L
same,MIC,"Acinetobacter ursingii, isolate NO-Ab103, Acinetobacter ursingii, read-out: MIC",2 mg/L
same,MIC,"Acinetobacter ursingii, isolate NO-Ab119, Acinetobacter ursingii, read-out: MIC",8 mg/L
same,MIC,"Acinetobacter ursingii, isolate NO-Ab120, Acinetobacter ursingii, read-out: MIC",4 mg/L
same,MIC,"Acinetobacter ursingii, isolate NO-Ab123, Acinetobacter ursingii, read-out: MIC",2 mg/L
same,MIC,"Acinetobacter ursingii, isolate NO-Ab126, Acinetobacter ursingii, read-out: MIC",4 mg/L
same,MIC,"Acinetobacter ursingii, isolate NO-Ab147, Acinetobacter ursingii, read-out: MIC",2 mg/L
same,MIC,"Acinetobacter ursingii, isolate NO-Ab155, Acinetobacter ursingii, read-out: MIC",4 mg/L
same,MIC,"Acinetobacter ursingii, isolate NO-Ab165, Acinetobacter ursingii, read-out: MIC",2 mg/L
same,MIC,"Acinetobacter ursingii, isolate NO-Ab166, Acinetobacter ursingii, read-out: MIC",1 mg/L
same,MIC,"Acinetobacter ursingii, isolate NO-Ab214, Acinetobacter ursingii, read-out: MIC",4 mg/L
same,MIC,"Acinetobacter ursingii, isolate NO-Ab221, Acinetobacter ursingii, read-out: MIC",4 mg/L
same,MIC,"Acinetobacter ursingii, isolate NO-Ab222, Acinetobacter ursingii, read-out: MIC",1 mg/L
same,MIC,"Acinetobacter, isolate NO-Ab146, Acinetobacter iwoffii, read-out: MIC",2 mg/L
same,MIC,"Acinetobacter, isolate NO-Ab159, Acinetobacter iwoffii, read-out: MIC",0.5 mg/L
same,MIC50,[1],2 mg/L
same,MIC90,[1],4 mg/L
same,MIC distribution 0.25,[2],4.6
same,MIC distribution 0.5,[2],12.6
same,MIC distribution 1,[2],41.4
same,MIC distribution 2,[2],73.6
same,MIC distribution 4,[2],96.6
same,MIC distribution 8,[2],98.9
same,MIC distribution 16,[2],100
same,MIC distribution 32,[2],100
same,MIC distribution ≤0.06,[2],0
